# According to PMC7190660, “Standardised comparison of limonene-derived monoterpenes identifies structural determinants of anti-inflammatory activity” (Scientific Reports, 2020):
# Where “and” joins values, the source holds several entries; their conditions need not be identical. Equal entries are not always repeated.
# How the values were obtained:
# [1] = tested on: LPS-induced NO production in Raw 264.7 macrophages; test: Primary screening: LPS-induced NO production (nitrite, Griess reaction) in Raw 264.7 macrophages; assay type: cell-based, mouse; conditions: for IC50: Mus musculus, RAW264.7, Raw 264.7 cell line; for Decrease (inhibition) of LPS-induced NO production: at the highest concentration tested; for % inhibition of LPS-induced NO production: at the highest non-cytotoxic concentration tested, nitrite in supernatants; for Effect on LPS-induced NO production / anti-inflammatory activity (in words): non-cytotoxic concentrations
# Procedure: (§1) Raw 264.7 cells were plated at a density of 3 × 10^5 cells/mL and left to stabilize for up to 24 h.
# This vehicle was used as control. Lipopolysaccharides from Escherichia coli 026:B6 (LPS; Sigma-Aldrich Co.) were dissolved in phosphate buffered saline (PBS). Recombinant human interleukin-1β (IL-1β; Peprotech, Rocky Hill, NJ, USA) was dissolved in PBS containing 0.1% Bovine Serum Albumin.
# NO production was measured as the amount of nitrite accumulated in the culture supernatants using the Griess reaction which is based in the reaction of nitrite with sulfanilamide under acidic conditions, yielding a diazonium ion that couples to N-(1-napthtyl)ethylenediamine dihydrochloride to form a water-soluble red-violet azo dye that absorbs at 550 nm[51]. Briefly, equal volumes of culture supernatants and reagents [equal volumes of 1% (w/v) sulphanilamide in 5% (v/v) phosphoric acid and 0.1% (w/v) N-(1-napthtyl)ethylenediamine dihydrochloride] were mixed and incubated for 10 min, at room temperature, in the dark. The concentration of nitrite accumulated in the culture supernatants was calculated by interpolation of the absorbance of each sample, read in Biotek Synergy HT plate reader (Biotek), in a standard curve of sodium nitrite.
# Raw 264.7 cells = test: Cytotoxicity by resazurin reduction assay in Raw 264.7 cells; assay type: cell-based, mouse; conditions: viability not decreased by more than 30% relative to LPS alone (ISO 10993-5), LPS 1 µg/mL 18 h
# Procedure: Various concentrations of the test compounds, in the absence or presence of LPS, were first evaluated for cytotoxicity using the resazurin reduction assay[26]
# as §1
# Resazurin is a redox dye used as an indicator of cellular metabolic activity for various applications, namely cell viability, proliferation and toxicity. The assay is based on the intracellular reduction of the non-fluorescent resazurin to resorufin (a fluorescent and pink coloured compound) by mitochondrial or microsomal enzymes that use NADH or NADPH as electron sources. Since only metabolically active cells can reduce the dye, the increase in fluorescence or absorbance is directly proportional to the number of viable cells[26],[50].
# To select non-cytotoxic concentrations of the test compounds, the resazurin solution was added to each well to a final concentration of 50 µM, 90 min before the end of the treatment period indicated in the figure legends. Then, absorbances at 570 nm and 620 nm (reference wavelength) were read in a Biotek Synergy HT plate reader (Biotek, Winooski, VT, USA).
# NOS2 = test: LPS-induced NOS2 mRNA (qRT-PCR) and protein (western blot) in Raw 264.7; assay type: cell-based, mouse; conditions: 1 h pre-treatment, Bay 11-7082 5 μM
# Procedure: Macrophage cultures were treated with 1 µg/mL LPS, for 6 h (a) or 18 h (b), following pre-treatment for 1 h with 666 µM of each test compound (a) or with the concentrations indicated in (b). […] Control cells (Ctrl) were treated with the vehicle (0.1% DMSO) in the absence of LPS. Each column represents the mean ± SEM of four independent experiments. The blots shown are representative of, at least, three independent experiments and are cropped for clarity and conciseness.
# Total RNA extraction and qRT-PCR were performed as described before[52]. Briefly, total RNA was extracted using the NZYol (NZYTECH, Lisbon, Portugal) and quantified in a NanoDrop ND-1000 spectrophotometer at 260 nm. RNA purity was assessed by analysis of 260/230 and 260/280 absorption ratios. The cDNA was reverse-transcribed using NZY First Strand cDNA Synthesis Kit (NZYTECH), beginning with 2 µg of total RNA. qRT-PCR was performed, in duplicate for each sample, using NZYSpeedy qPCR Green Master Mix (2×) (NZYTECH) on CFX96 Real-Time PCR Detection System (Bio-Rad, Hercules, CA, USA).
# Gene expression changes were analysed using the built-in CFX Manager software which enables the analysis of the results by the Pfaffl method, a variation of the ΔΔCT method corrected for gene-specific efficiencies[53]. The results were normalized using Hprt1 as housekeeping gene.
# Total cell extracts were prepared and western blot was performed as described before[54]. Briefly, total (25 µg for Raw 264.7 cell line and 20 µg for human chondrocytes) proteins were separated by SDS-PAGE under reducing conditions and electrotransferred onto PVDF membranes. […] Immune complexes were detected with Enhanced ChemiFluorescence reagent (GE Healthcare) in the imaging system Thyphoon FLA 9000 (GE Healthcare). The membranes were reprobed with a mouse monoclonal anti-β-Tubulin I antibody (Sigma-Aldrich Co.), diluted at 1:20000, as a loading control, for 1 h at room temperature. Image analysis was performed with TotalLab TL120 software (Nonlinear Dynamics Ltd).
# human chondrocytes = test: IL-1β-induced NOS2 protein, NO production and pro-IL-1β protein in primary human chondrocytes; assay type: cell-based; conditions: IL-1β 10 ng/mL 24 h, carvone 666 or 1331 µM, Bay 11-7082 5 µM
# Procedure: The cells were treated with 10 ng/mL IL-1β for 24 h (a, b, c and d), following pre-treatment for 1 h with 666 or 1331 µM of (S)-(+)-carvone (4). As a positive control, the cells were similarly treated with 5 μM Bay 11-7082 (b and c). Control cells (Ctrl) were treated with the vehicle (0.1% DMSO) in the absence of IL-1β. Each column represents the mean ± SEM of, at least, three independent experiments. The blots shown are representative of, at least, three independent experiments and are cropped for clarity and conciseness.
# Briefly, cartilage shavings underwent sequential digestion with Pronase (Roche, Indianapolis, IN, USA) and collagenase A (Roche, Indianapolis, IN, USA). To avoid chondrocyte dedifferentiation, non-proliferating monolayer cultures were setup by plating 1× 10^6 chondrocytes/mL in HAM: F12 medium containing 3% antibiotics and 5% FBS and allowed to recover for 24 h at 37 °C in a humidified atmosphere with 5% CO2. Prior to any treatments, chondrocytes were serum-starved overnight and thereafter maintained in culture medium without FBS.
# This vehicle was used as control. […] Recombinant human interleukin-1β (IL-1β; Peprotech, Rocky Hill, NJ, USA) was dissolved in PBS containing 0.1% Bovine Serum Albumin.
# Total cell extracts were prepared and western blot was performed as described before[54]. […] Immune complexes were detected with Enhanced ChemiFluorescence reagent (GE Healthcare) in the imaging system Thyphoon FLA 9000 (GE Healthcare). The membranes were reprobed with a mouse monoclonal anti-β-Tubulin I antibody (Sigma-Aldrich Co.), diluted at 1:20000, as a loading control, for 1 h at room temperature. Image analysis was performed with TotalLab TL120 software (Nonlinear Dynamics Ltd).
IC50 [1],SMILES,Decrease (inhibition) of LPS-induced NO production ([1]; Raw 264.7),% inhibition of LPS-induced NO production ([1]; Raw 264.7),Highest non-cytotoxic concentration tested (Raw 264.7 cells),Effect on LPS-induced NO production / anti-inflammatory activity (in words) ([1]; Raw 264.7),other results
1.47 mM and 224 µg/mL,"C=C(C)[C@@H]1CCC(C)C(=O)C1 (single isomer, unassigned; (+)) [(+)-dihydrocarvone (7), (+)-dihydrocarvone]",greater than 30%,73.57 ± 2.81 % ± SEM,2628 µM and 400 µg/mL,,
2 mM and 304 µg/mL,"C=C(C)[C@@H]1CC=C(C)C(O)C1 (single isomer, unassigned; (-)) [(−)-carveol (6), (−)-carveol]",greater than 30%,52.30 ± 5.54 % ± SEM,2628 µM and 400 µg/mL,,
,"C=C(C)[C@@H]1CC[C@](C)(O)[C@@H](O)C1 [(1 S,2 S,4 R)-(+)-limonene-1,2-diol (3), (1 S,2 S,4 R)-(+)-limonene-1,2-diol]",less than 20%,13.90 ± 2.03 % ± SEM,2349 µM and 400 µg/mL,inactive,
532 µM and 82.1 µg/mL,"C=C(C)[C@H]1CC[C@H](C)[C@@H](O)C1 [(+)-dihydrocarveol (8), (+)-dihydrocarveol]",greater than 30%,71.03 ± 2.28 % ± SEM,1297 µM and 200 µg/mL,,
,"C=C(C)[C@H]1CC[C@H](C)C[C@@H]1O [(+)-isopulegol (10), (+)-isopulegol]",,−18.47 ± 5.65 % ± SEM,2593 µM and 400 µg/mL,inactive,"Effect on LPS-induced NO production / anti-inflammatory activity (in words) ([1]; Raw 264.7, listed as 10): no effect"
842 µM and 142 µg/mL,"CC1=CC[C@@H](C(C)(C)O)CC1=O [(R)-8-hydroxycarvotanacetone (21), (R)-5-(2-hydroxypropan-2-yl)-2-methylcyclohex-2-en-1-one]",greater than 30%,76.25 ± 1.97 % ± SEM,2378 µM and 400 µg/mL,significant activity,
,"C=C(C)[C@H]1CC=C(C)CC1 [(R)-(+)-limonene (2), (R)-(+)-limonene]",,−1.80 ± 0.55 % ± SEM,,inactive,"Effect on LPS-induced NO production / anti-inflammatory activity (in words) ([1]; Raw 264.7, listed as 2): no effect"
,"CC(C)=C1CC[C@@H](C)CC1=O [(R)-(+)-pulegone (12), (R)-(+)-pulegone]",,7.80 ± 2.98 % ± SEM,1314 µM and 200 µg/mL,inactive,"Effect on LPS-induced NO production / anti-inflammatory activity (in words) ([1]; Raw 264.7, listed as 12): no effect"
762 µM and 116 µg/mL,"CC1=CC[C@H](C(C)(C)O)CC1=O [(S)-8-hydroxycarvotanacetone (20), (S)-5-(2-hydroxypropan-2-yl)-2-methylcyclohex-2-en-1-one]",greater than 30%,78.43 ± 1.60 % ± SEM,2378 µM and 400 µg/mL,significant activity,
,"C=C(C)[C@@H]1CC=C(C)CC1 [(S)-(−)-limonene (1), (S)-(−)-limonene]",,11.08 ± 4.65 % ± SEM,,inactive,"Effect on LPS-induced NO production / anti-inflammatory activity (in words) ([1]; Raw 264.7, listed as 1): no effect"
,"CC(C)=C1CC[C@H](C)CC1=O [(S)-(−)-pulegone (13), (S)-(−)-pulegone]",,35.60 ± 4.86 % ± SEM,2628 µM and 400 µg/mL,weak activity,
2.14 mM and 330 µg/mL,"C=C(C)[C@@H]1CC[C@@H](C)[C@H](O)C1 [(−)-dihydrocarveol (9), (−)-dihydrocarveol]",greater than 30%,62.03 ± 8.62 % ± SEM,2593 µM and 400 µg/mL,,
,"C=C(C)[C@@H]1CC[C@@H](C)C[C@H]1O [(−)-isopulegol (11), (−)-isopulegol]",,−12.63 ± 1.30 % ± SEM,2593 µM and 400 µg/mL,inactive,"Effect on LPS-induced NO production / anti-inflammatory activity (in words) ([1]; Raw 264.7, listed as 11): no effect"
,"CC(C)[C@@H]1CC[C@@H](C)C[C@H]1O [(−)-menthol (15), (−)-menthol]",,−6.90 ± 1.24 % ± SEM,2560 µM and 400 µg/mL,no effect,
,"CC(C)[C@@H]1CC[C@@H](C)CC1=O [(−)-menthone (14), (−)-menthone]",,−9.88 ± 2.85 % ± SEM,1297 µM and 200 µg/mL,no effect,
,"Cc1ccc(S(=O)(=O)/C=C/C#N)cc1 [Bay 11-7082, reference compound]",,,,,"NO production relative to cells treated with LPS alone ([1]; pre-treatment with 5 μM, Raw 264.7): 48.1 ± 5.2%; LPS-induced NOS2 mRNA levels (NOS2; LPS 1 µg/mL 6 h, test compounds 666 µM): decreased; LPS-induced NOS2 protein levels (NOS2; LPS 1 µg/mL 18 h): decreased; IL-1β-induced NO production (human chondrocytes): significantly decreased; IL-1β-induced NOS2 protein levels (human chondrocytes): significantly decreased"
,"Cc1ccc(C(C)C)cc1O [carvacrol (18), carvacrol]",less than 20%,10.78 ± 1.34 % ± SEM,33 µM and 5 µg/mL,almost no activity,
,"Cc1ccc(C(C)C)cc1 [p-cymene (17), p-cymene]",less than 20%,8.50 ± 5.53 % ± SEM,37 µM and 5 µg/mL,showed no activity,
,"Cc1ccc(C(C)C)c(O)c1 [thymol (19), thymol]",less than 20%,8.93 ± 1.91 % ± SEM,83 µM and 12.5 µg/mL,showed no activity,
